Source: PMC8979220 (RSC Advances, 2022)
≈ marks a conversion by molar mass, not a printed value.

biological target: acetylcholinesterase (acetyl cholinesterase); assay: in vitro AChE inhibition assay; assay type: biochemical, Electrophorus electricus

| SMILES | IC50 (μg ml^-1) ± SEM |
| --- | --- |
| O=C1C(=O)N(CCOc2ccccc2)c2ccccc21 [PI1, 1-(2-Phenoxyethyl)indoline-2,3-dione] | 0.52 ± 0.073 µg/mL (≈ 1.95 µM) |
| O=C1C(=O)N(CCOc2ccc(Cl)cc2)c2ccccc21 [PI2, 1-(2-(4-Chlorophenoxy)ethyl)indoline-2,3-dione] | 0.72 ± 0.012 µg/mL (≈ 2.39 µM) |
| O=C1C(=O)N(CCOc2ccc(F)cc2)c2ccccc21 [PI4, 1-(2-(4-Fluorophenoxy)ethyl)indoline-2,3-dione] | 0.68 ± 0.011 µg/mL (≈ 2.38 µM) |
| O=C1C(=O)N(CCOc2ccc(Cl)cc2)c2ccc(Cl)cc21 [PI6, 5-Chloro-1-(2-(4-chlorophenoxy)ethyl)indoline-2,3-dione] | 0.91 ± 0.015 µg/mL (≈ 2.71 µM) |
| O=C1C(=O)N(CCOc2ccccc2)c2ccc(Br)cc21 [PI9, 5-Bromo-1-(2-phenoxyethyl)indoline-2,3-dione] | 0.91 ± 0.083 µg/mL (≈ 2.63 µM) |
| O=C1C(=O)N(CCOc2ccc(Cl)cc2)c2ccc(Br)cc21 [PI10, 5-Bromo-1-(2-(4-chlorophenoxy)ethyl)indoline-2,3-dione] | 0.98 ± 0.055 µg/mL (≈ 2.57 µM) |
| O=C1C(=O)N(CCOc2ccc(Br)cc2)c2ccc(Br)cc21 [PI11, 5-Bromo-1-(2-(4-bromophenoxy)ethyl)indoline-2,3-dione] | 1.14 ± 0.013 µg/mL (≈ 2.68 µM) |
| O=C1C(=O)N(CCOc2ccc(F)cc2)c2ccc(Br)cc21 [PI12, 5-Bromo-1-(2-(4-fluorophenoxy)ethyl)indoline-2,3-dione] | 1.31 ± 0.083 µg/mL (≈ 3.6 µM) |
